Test system: alkaline phosphatase activity in T47D cells
Experiment: Effects of progestins and antiprogestins on alkaline phosphatase activity in T47D cells
Assay type: cell-based
Details: Homo sapiens, antagonist mode, in the presence of 1 nM progesterone, 24 h incubation, read-out: T47D Alkaline Phosphatase Activity IC50 (nM) or % inhibition
Description: (1) Effects of Progestins and Antiprogestins on Alkaline Phosphatase Activity in T47D Cells.
• PURPOSE: To identify progestins or antiprogestins by determining a compound's effect on alkaline phosphatase activity in T47D cells. A. Reagents:
Culture medium: • DMEM:F12 (1:1) (GIBCO, BRL) supplemented with 5% (v/v) charcoal stripped fetal bovine serum (not heat-inactivated), 100 U/mL penicillin, 100 μg/mL streptomycin, and 2 mM the GlutaMax™ reagent (GIBCO, BRL).
Alkaline phosphatase assay buffer: • I. 0.1M Tris-HCl, pH 9.8, containing 0.2% the Triton® X-100 reagent • II. 0.1M Tris-HCl, pH 9.8, containing 4 mM p-nitrophenyl phosphate (Sigma). B. Cell Culture and Treatment:
Frozen T47D cells were thawed in a 37° C. water bath and diluted to 280,000 cells/mL in culture medium. To each well in a 96-well plate (Falcon, Becton Dickinson Labware), 180 μL of diluted cell suspension was added.
Twenty μL of reference or test compounds diluted in the culture medium was then added to each well. When testing for progestin antagonist activity, reference antiprogestins or test compounds were added in the presence of 1 nM progesterone. The cells were incubated at 37° C. in a 5% CO2/humidified atmosphere for 24 h.
NOTE: For high throughput screening, one concentration of each compound was tested at 0.3 μg/mL. Based on an average molecular weight of 300 g/mol for the compounds in the library, the concentration was approximately 1 μM. Subsequently, active compounds were tested in dose response assays to determine EC50 and IC50. C. Alkaline Phosphatase Enzyme Assay:
At the end of treatment, the medium was removed from the plate. Fifty μL of assay buffer I was added to each well. […]
For reference and test compounds, a dose response curve was generated for dose (X-axis) vs. the rate of enzyme reaction (slope) (Y-axis). […] EC50 or IC50 values were calculated from the retransformed values. […]
Progesterone and trimegestone were reference progestins and RU486 was the reference antiprogestin. All reference compounds were run in full dose response curves and the EC50 and IC50 values were calculated.

IC50 [nM]	SMILES
100	CC1(C)COC(=O)N1c1nc2c(ccc3cc(C#N)ccc32)s1 [Example 7, 2-(4,4-Dimethyl-2-oxo-1,3-oxazolidin-3-yl)naphtho[1,2-d][1,3]thiazole-7carbonitrile]
5	CCC1(CC)COC(=O)N1c1nc2c(s1)CCc1cc(C#N)ccc1-2 [Example 5, 2-(4,4-Diethyl-2-oxo-1,3-oxazolidin-3-yl)-4,5-dihydronaphtho[1,2-d][1,3]thiazole-7-carbonitrile]
27.9	CC1(C)COC(=O)N1c1nc2c(s1)CCc1cc(C#N)ccc1-2 [Example 6, 2-(4,4-Dimethyl-2-oxo-1,3-oxazolidin-3-yl)-4,5-dihydronaphtho[1,2-d][1,3]thiazole-7-carbonitrile]

Test system: not given
Experiment: not given
Details: not given

melting point [°C]	SMILES
145 to 147	CCC1(CC)COC(=O)N1c1nc(-c2ccc(C#N)cc2)cs1 [Example 2, 4-[2-(4,4-Diethyl-2-oxo-1,3-oxazolidin-3-yl)-1,3-thiazol-4-yl]benzonitrile]
197 to 199	C[C@@H]1COC(=O)N1c1nc(-c2ccc(Br)cc2)cs1 [Example 1, (4R)-3-[4-(4-Bromophenyl)-1,3-thiazol-2-yl]-4-methyl-1,3-oxazolidin-2-one]
181 to 183	CC1(C)COC(=O)N1c1nc(-c2cccc(C#N)c2)cs1 [Example 3, 3-[2-(4,4-dimethyl-2-oxo-1,3-oxazolidin-3-yl)-1,3-thiazol-4-yl]benzonitrile]
